From article PMC7278776, “Multidrug Resistance Modulation Activity of Silybin Derivatives and Their Anti-Inflammatory Potential” (Antioxidants, 2020)

What was measured:
acetylcholinesterase = acetylcholinesterase (Homo sapiens, UniProt P22303); experiment: Acetylcholinesterase activity, Ellman colorimetric method; type: biochemical
Experimental: The activity of acetylcholinesterase was measured by the Ellman colorimetric method. A stock solution of acetylcholinesterase was prepared in PBS (0.057 U/mL), 100× diluted and stored in a freezer (−20 °C). Further, the solution of DTNB (5,5′-dithio-bis-2-nitrobenzoic acid, 50 µM) and ATC ([…], 50 µM) was prepared. […] Afterwards, 10 µL of DNTB and ATC solution was added, and the reaction was launched. After the addition of reagents, the absorbance at 412 nm was recorded for 10 min every minute.

ABCC5 = ABCC5 mRNA expression (real-time PCR); type: cell-based, human; conditions: A2780/DOX, 10 µM combined with doxorubicin at IC25, 48 h
Experimental: (§1) The A2780/DOX cell line was seeded into 5 cm Petri dishes with DMEM medium at 1 × 10^5 cell/mL. After 24 h, the dishes were washed with PBS and new DMEM medium supplemented with doxorubicin (at concentration equal to IC25) and samples (10 µM) were added. After 48 h of treatment, the cells were washed with PBS and harvested using the standard trypsin-EDTA procedure. The harvested cells were centrifuged (3200× g; 10 min, 4 °C). The supernatant was discarded, and the pellets were washed with 1.5 mL of cooled PBS (5400× g; 10 min, 4 °C). The washing step was repeated with 1 mL of PBS and the cells were centrifuged again (10,000× g; 3 min, 4 °C). Afterwards, the pellets were resuspended in 1 mL of Trizol (Invitrogen, Carlsbad, CA, USA) and transferred into pre-cooled RNase-free microfuge tubes. The samples were stored at −80 °C.
(§2) A Quant-iT RiboGreen RNA Assay Kit (Invitrogen) was used to determine the RNA concentration using the Infinite M200 plate reader (Tecan, Männedor, Switzerland). The cDNA was prepared from 0.5 µg of total RNA using a RevertAid First Strand Synthesis cDNA Kit (MBI Fermentas, Vilnius, Lithuania). The amplification of the ubiquitin C gene fragment was used to determine the quality of cDNA.
(§3) The experiment was performed using the ViiA7 Real-Time polymerase chain reaction (PCR) System (Life Technologies, Camarillo, CA, USA) with a 384-well block. Before quantitative real-time PCR, the master mix was prepared by mixing 2 µL of 8 × diluted cDNA, 1.75 µL of RNase free water, 1 µL of 5 × HotFIREPol Probe quantitative PCR Mix Plus (Solis Biodyne, Tartu, Estonia) and 0.25 µL of specific 20 × TaqMan Gene Expression Assay (Life Technologies), giving 5 µL of final reaction volume. Cycling parameters were: initial hold at 50 °C for 2 min and denaturation at 95 °C for 10 min, followed by 45 cycles consisting of denaturation at 95 °C for 15 s and annealing/extension at 60 °C for 1 min. After each extension phase, the fluorescence values were acquired. Duplicate samples were used for measurement and samples with a standard deviation of duplicates > 1.0 cycle threshold (Ct) were re-analyzed. The real time PCR procedure was maintained according to MIQE (Minimum information for publication of quantitative real-time PCR experiments) guidelines. The software REST 2009 (Qiagen, Hilden, Germany) served to compare relative transcript levels of genes in the cell line.

ABCA1 = ABCA1 mRNA expression (real-time PCR); type: cell-based, human; conditions: A2780/DOX
Experimental: as §1, §2, §3

human recombinant P-gp = target: T1, human recombinant P-gp (Homo sapiens, UniProt P08183); experiment: biochemical
T1 construct: purchased Promega
Experimental: The procedure and the dilution of the reagents were performed according to the manufacturer’s instructions. Briefly, the human recombinant P-gp-containing membrane (25 µg) was mixed in a 96-well plate with P-gp–Glo™ Assay buffer (control), verapamil (P-gp substrate, positive control, 0.2 mM), Na3VO4 (P-gp inhibitor, negative control, 0.1 mM), ATP standards (to construct the calibration curve, 0.375–3 mM) or samples (2.5 µL, in the concentration range 0.7–20 mM). After that, MgATP (5 mM) was added to total volume of 50 µL to each well to initiate the ATPase reaction. The plate was incubated for 1 h at 37 °C. Thereafter, the reaction was stopped by adding 50 µL of ATP detection reagent and incubated at room temperature for 20 min. The remaining non-metabolized ATP was detected as a luciferase-generated signal.
Using linear regression, the standard ATP curve was designed, and by subsequent interpolation of relative luminescence (RLU) of standards, the amount of ATP consumed in the samples was recalculated according to the manufacturer’s guidelines.

[1] = ORAC (oxygen radical absorption capacity) assay; conditions: fluorescein/AAPH; read-out: ORAC, concentration necessary to halve the fluorescence response (IC50)
Experimental: Antioxidant capacity of samples was determined by ORAC (oxygen radical absorption capacity) and CAA (cellular antioxidant activity) assays. ORAC assay was realized by the previously described protocol. Briefly, 50 µL of the fluorescein solution (1.6 µg/mL in phosphate-buffered saline (PBS), pH 7.4) was added by a dispenser (MultiFlo Microplate Dispenser, BioTek Instrument, Winooski, VT, USA) into each well of a 96-well plate. Subsequently, 2 µL of tested compound in the concentration range 1.25–20 µM and 23 µL of PBS were added to the wells. The plate was incubated for 15 min at 37 °C and then 25 µL of AAPH (60 mg/mL) was added to each well. AAPH was replaced with PBS for the negative control. Immediately, the fluorescence was recorded by the microplate reader (SpectraMax i3 Multi-Mode Detection Platform, Molecular Devices, San Jose, CA, USA) for 2 h in 5 min steps (excitation/emission 485/535 nm).

ABCB2 = ABCB2 mRNA expression (real-time PCR); type: cell-based, human; conditions: A2780/DOX, 10 µM combined with doxorubicin at IC25, 48 h
Experimental: as §1, §2, §3

ABCA5 = ABCA5 mRNA expression (real-time PCR); type: cell-based, human; conditions: A2780/DOX
Experimental: as §1, §2, §3

ABCD2 = ABCD2 mRNA expression (real-time PCR); type: cell-based, human; conditions: A2780/DOX
Experimental: as §1, with “After 24 h, the dishes were washed with PBS and new DMEM medium supplemented with doxorubicin (at concentration equal to IC25) and samples (10 µM) were added.” left out
as §2, §3

ABCB9 = ABCB9 mRNA expression (real-time PCR); type: cell-based, human; conditions: A2780/DOX, 10 µM combined with doxorubicin at IC25, 48 h
Experimental: as §1, §2, §3

ABCC10 = ABCC10 mRNA expression (real-time PCR); type: cell-based, human; conditions: A2780/DOX
Experimental: as §1, with “After 24 h, the dishes were washed with PBS and new DMEM medium supplemented with doxorubicin (at concentration equal to IC25) and samples (10 µM) were added.” left out
as §2, §3

[2] = 10 µM combined with doxorubicin at IC25, 48 h
[3] = 10 µM, 48 h, without doxorubicin

T1 sequence (P08183 whole entry): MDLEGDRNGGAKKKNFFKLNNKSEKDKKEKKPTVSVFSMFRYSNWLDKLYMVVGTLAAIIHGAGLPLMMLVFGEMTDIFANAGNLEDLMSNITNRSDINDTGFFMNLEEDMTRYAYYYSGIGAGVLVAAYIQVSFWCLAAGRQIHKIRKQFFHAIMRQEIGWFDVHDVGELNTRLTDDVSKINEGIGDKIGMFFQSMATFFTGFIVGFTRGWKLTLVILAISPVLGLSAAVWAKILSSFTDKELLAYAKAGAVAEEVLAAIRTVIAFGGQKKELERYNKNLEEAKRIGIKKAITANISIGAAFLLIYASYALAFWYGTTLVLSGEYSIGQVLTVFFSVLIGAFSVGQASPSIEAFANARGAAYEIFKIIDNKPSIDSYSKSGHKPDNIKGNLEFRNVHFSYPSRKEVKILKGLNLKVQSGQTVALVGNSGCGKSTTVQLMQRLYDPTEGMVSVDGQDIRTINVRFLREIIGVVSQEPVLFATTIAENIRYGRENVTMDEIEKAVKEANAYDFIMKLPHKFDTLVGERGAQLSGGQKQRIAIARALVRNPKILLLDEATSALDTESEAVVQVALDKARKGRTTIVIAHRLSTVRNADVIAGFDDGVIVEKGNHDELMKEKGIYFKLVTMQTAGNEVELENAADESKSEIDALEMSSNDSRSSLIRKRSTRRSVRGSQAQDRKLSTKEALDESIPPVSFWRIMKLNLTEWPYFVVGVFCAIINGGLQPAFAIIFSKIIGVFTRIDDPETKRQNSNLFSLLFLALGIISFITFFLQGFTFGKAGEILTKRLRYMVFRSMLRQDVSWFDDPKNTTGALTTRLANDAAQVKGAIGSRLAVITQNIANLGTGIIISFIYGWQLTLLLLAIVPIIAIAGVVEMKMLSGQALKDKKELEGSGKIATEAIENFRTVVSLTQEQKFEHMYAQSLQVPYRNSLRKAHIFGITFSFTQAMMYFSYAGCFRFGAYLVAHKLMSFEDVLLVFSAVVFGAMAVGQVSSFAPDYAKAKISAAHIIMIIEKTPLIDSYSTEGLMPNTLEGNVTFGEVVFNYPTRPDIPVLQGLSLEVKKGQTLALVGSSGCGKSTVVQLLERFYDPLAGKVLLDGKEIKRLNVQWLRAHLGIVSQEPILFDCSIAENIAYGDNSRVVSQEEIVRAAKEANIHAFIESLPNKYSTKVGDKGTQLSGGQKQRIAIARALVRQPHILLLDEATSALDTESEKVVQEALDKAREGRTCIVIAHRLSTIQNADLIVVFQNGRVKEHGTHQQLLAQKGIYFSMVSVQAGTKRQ
Chain of acetylcholinesterase (P22303 32-614, species assumed): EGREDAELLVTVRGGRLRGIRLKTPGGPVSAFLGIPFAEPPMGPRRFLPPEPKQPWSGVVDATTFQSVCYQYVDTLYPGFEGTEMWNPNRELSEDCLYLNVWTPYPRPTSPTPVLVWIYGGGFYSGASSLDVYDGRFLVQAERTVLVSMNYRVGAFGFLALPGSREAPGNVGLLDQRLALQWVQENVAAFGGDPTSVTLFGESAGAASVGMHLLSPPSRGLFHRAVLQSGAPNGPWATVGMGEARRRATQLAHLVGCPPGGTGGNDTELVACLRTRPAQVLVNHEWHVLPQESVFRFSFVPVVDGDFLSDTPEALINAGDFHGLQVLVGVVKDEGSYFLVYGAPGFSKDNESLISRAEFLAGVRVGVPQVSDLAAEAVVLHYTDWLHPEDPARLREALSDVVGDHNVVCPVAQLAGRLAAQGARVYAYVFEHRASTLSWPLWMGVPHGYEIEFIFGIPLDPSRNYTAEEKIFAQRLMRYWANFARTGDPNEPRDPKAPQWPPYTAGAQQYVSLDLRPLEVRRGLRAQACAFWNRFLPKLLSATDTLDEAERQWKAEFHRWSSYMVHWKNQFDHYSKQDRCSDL

Row | SMILES | IC50 (acetylcholinesterase) | ABCC5 Expression Difference (ABCC5) | ABCA1 Expression Difference (ABCA1; [2]) | IC50 (human recombinant P-gp) | IC50 [1] | ABCB2 Expression Difference (ABCB2) | ABCA5 Expression Difference (ABCA5; [2]) | ABCD2 Expression Difference (ABCD2; [2]) | ABCD2 Treated vs. Untreated (ABCD2; [2]) | ABCD2 Expression Difference (ABCD2; [3]) | ABCB9 Expression Difference (ABCB9) | ABCC10 Expression Difference (ABCC10; [2]) | ABCC10 Expression Difference (ABCC10; [3]) | inhibition of acetylcholinesterase activity relative to single isomers (acetylcholinesterase) | ABCA1 Expression Difference (ABCA1; [3]) | ABCD2 Treated vs. Untreated (ABCD2; [3]) | ABCA5 Expression Difference (ABCA5; [3]) | ABCA5 Treated vs. Untreated (ABCA5; [3]) | ABCC10 Treated vs. Untreated (ABCC10; [3])
1 | COc1cc([C@H]2Oc3cc(-c4oc5cc(O)cc(O)c5c(=O)c4O)ccc3O[C@@H]2CO)ccc1O [Dehydrosilybin A, 2,3-dehydrosilybin A] | 6.9 ± 0.6 µM | 1.116 | 4.172 | 60.7 ± 10 µM | 11.4 ± 1.2 µM | 5.557 | 1.223 | 0.698 | DOWN | 1.205 | 1.109 | 1.214 | 1.200 |  |  |  |  |  | 
2 | COc1cc(C2Oc3cc(-c4oc5cc(O)cc(O)c5c(=O)c4O)ccc3OC2CO)ccc1O (stereo not drawn) [Dehydrosilybin AB, 2,3-dehydrosilybin] | 2.7 ± 0.3 µM | 1.288 | 3.122 | 21.1 ± 0.6 µM | 10.1 µM | 5.145 | 1.254 | 0.712 | DOWN | 1.199 | 1.149 | 1.323 | 1.471 | 2.5 × | 1.803 |  |  |  | 
3 | COc1cc([C@@H]2Oc3cc(-c4oc5cc(O)cc(O)c5c(=O)c4O)ccc3O[C@H]2CO)ccc1O [Dehydrosilybin B, 2,3-dehydrosilybin B] | 6.8 ± 0.8 µM | 1.385 | 4.412 | 40.7 ± 3.8 µM | 11.8 ± 0.6 µM | 9.286 | 1.707 | 0.733 | DOWN | 0.860 | 1.218 | 1.618 | 1.107 |  |  | DOWN |  |  | 
4 | COc1cc([C@H]2Oc3cc([C@H]4Oc5cc(O)cc(O)c5C(=O)[C@@H]4O)ccc3O[C@@H]2CO)ccc1O [Silybin A, silybin A] | 181 ± 6.1 µM | 1.782 | 2.702 | 43.1 ± 6.4 µM | 6.6 ± 0.3 µM | 17.975 | 2.427 | 0.426 | DOWN | 1.063 | 1.586 | 1.812 | 1.260 |  |  |  |  |  | 
5 | COc1cc(C2Oc3cc([C@H]4Oc5cc(O)cc(O)c5C(=O)[C@@H]4O)ccc3OC2CO)ccc1O (stereo partly drawn) [Silybin AB, silybin] | 22.6 ± 1.4 µM | 1.787 | 2.922 | 32.6 ± 3.6 µM | 7.1 ± 0.6 µM | 18.114 | 2.122 | 0.494 | DOWN | 1.566 | 1.638 | 1.855 | 1.857 |  | 2.021 |  | 1.933 |  | 
6 | COc1cc([C@@H]2Oc3cc([C@H]4Oc5cc(O)cc(O)c5C(=O)[C@@H]4O)ccc3O[C@H]2CO)ccc1O [Silybin B, silybin B] | 83.7 ± 6.4 µM | 1.473 | 2.415 | 51.9 ± 2.1 µM | 6.8 ± 0.3 µM | 15.698 | 1.821 | 0.448 | DOWN | 0.322 | 1.241 | 1.349 | 0.340 |  |  | DOWN | 0.356 | DOWN | DOWN
